Data taken from US20250154172A1, “PRMT5 INHIBITORS AND USES THEREOF” (Gilead Sciences, Inc., priority 2023, published 2025).

Tested on: HCT116 MTAP-deleted cell lines
Experiment: Cell viability assay for HCT116 isogenic pair (CellTitre-Glo, 7 days)
Assay type: cell-based
Details: Homo sapiens, HCT-116, 168 h, 7 days of treatment, cell line not given
Procedure: Control compounds were analyzed in parallel each time for quality control.
In Brief, on Day −1, a serial dilution of stock compounds in DMSO was performed using BioMek liquid handlers and dispensed using Echo acoustic dispenser into 384 well plates. Both tool compounds and sample compounds were spotted in the same plate for a dose response of PRMT5 inhibitors. Compound plates were stored as frozen until the cells were ready for seeding.
On Day 0, 100 HCT WT or HCT116 MTAP-deleted cells were seeded in compound-containing 384 well plates (50 μl per well) in RPMI 1640 media supplemented with 10% heat inactivated fetal bovine serum, Glutamax and penicillin streptomycin using EL460 liquid dispenser 5 μl cassette (BioTek, part no. 7170011). After equilibrating the plate in room temperature, the cells were incubated for 7 days inside the sealed incubator set at 37° C. with 90% humidity and 5% CO2.
On Day 7, the viability of cells was measured using a CTG assay kit (CellTitre-Glo; Promega cat no. G7573). Shortly, 40 μl per well of luminescent cell viability assay reagent were dispensed using EL460 liquid dispenser 5 μl cassette. CTG luminescence signal was measured using an EnVision plate reader (PerkinElmer) in accordance with manufacturer's instruction. The CCso values for each compound after 7 days of treatment were calculated using 4 parameter non-linear logistical curve fit.
For the cell viability assay ie CC50 shown in nM in Table 3.

Row | Structure (SMILES) | CC50 [nM]
1 | Cn1ncc2c(N)nc3cnc(C(=O)N4CC[C@H]5C[C@@H]4c4ccc(Cl)c(F)c45)cc3c21 [Example Ca-42, (4-amino-1-methyl-1H-pyrazolo[4,3-c][1,7]naphthyridin-8-yl)((1R,5S)-7-chloro-6-fluoro-1,3,4,5-tetrahydro-2H-1,5-methanobenzo[c]azepin-2-yl)methanone] | 25
2 | C[C@H]1CN(C(=O)c2cc3c(cn2)nc(N)c2cnn(C)c23)[C@H]2c3ccc(C(F)(F)F)cc3C[C@H]2O1 [Example Ca-13, (4-amino-1-methyl-1H-pyrazolo[4,3-c][1,7]naphthyridin-8-yl)((2S,4aS,9aR)-2-methyl-7-(trifluoromethyl)-2,3,9,9a-tetrahydroindeno[2,1-b][1,4]oxazin-4(4aH)-yl)methanone] | 17
3 | Cn1ncc2c(N)nc3cc(Cl)c(C(=O)N4CCC[C@H]5Oc6cc(C(F)(F)F)ccc6[C@H]54)cc3c21 (stereo in doubt) [Example Ca-3, (4-amino-7-chloro-1-methyl-1H-pyrazolo[4,3-c]quinolin-8-yl)((4aR,9bR)-7-(trifluoromethyl)-3,4,4a,9b-tetrahydrobenzofuro[3,2-b]pyridin-1(2H)-yl)methanone] | 5
4 | Nc1nc2cnc(C(=O)N3CCC[C@@H]4Oc5nc(C(F)(F)F)ccc5[C@@H]43)cc2c2c1COC2 (racemic) [Example Ca-32, Rac-(4-amino-1,3-dihydrofuro[3,4-c][1,7]naphthyridin-8-yl)((4aS,9bS)-7-(trifluoromethyl)-3,4,4a,9b-tetrahydrofuro[2,3-b:4,5-b′]dipyridin-1(2H)-yl)methanone] | 54
5 | Cn1ncc2c(N)nc3ccc(C(=O)N4CCCC5OCc6cc(C(F)(F)F)ccc6C54)cc3c21 (stereo not drawn) [Example Ca-9, (4-amino-1-methyl-1H-pyrazolo[4,3-c]quinolin-8-yl)(8-(trifluoromethyl)-2,3,4,4a,6,10b-hexahydro-1H-isochromeno[4,3-b]pyridin-1-yl)methanone] | 56
6 | C[C@@H]1CN(C(=O)c2cc3c(cn2)nc(N)c2cnn(C)c23)[C@H]2c3ccc(Cl)cc3C[C@H]2O1 (single isomer, unassigned) [Example Ca-37] | 22
7 | Nc1nc2cnc(C(=O)N3CC[C@H]4C[C@@H]3c3c(Cl)cc(C(F)(F)F)cc3O4)cc2c2c1COC2 [Example Ca-60, (4-amino-1,3-dihydrofuro[3,4-c][1,7]naphthyridin-8-yl)((2S,6R)-7-chloro-9-(trifluoromethyl)-3,4-dihydro-2H-2,6-methanobenzo[b][1,5]oxazocin-5(6H)-yl)methanone] | 227
8 | Cn1ncc2c(N)nc3cc(F)c(C(=O)N4CCO[C@@H]5Cc6cc(C(F)(F)F)ccc6[C@@H]54)cc3c21 (racemic) [Example Ca-10, (Rac)-(4-amino-7-fluoro-1-methyl-1H-pyrazolo[4,3-c]quinolin-8-yl)(7-(trifluoromethyl)-2,3,9,9a-tetrahydroindeno[2,1-b][1,4]oxazin-4(4aH)-yl)methanone] | 10
9 | Cn1ncc2c(N)nc3cc(F)c(C(=O)N4CCC[C@@H]5Oc6cc(C(F)(F)F)ccc6[C@@H]54)cc3c21 [Example Ca-4, (4-amino-7-fluoro-1-methyl-1H-pyrazolo[4,3-c]quinolin-8-yl)((4aS,9bS)-7-(trifluoromethyl)-3,4,4a,9b-tetrahydrobenzofuro[3,2-b]pyridin-1(2H)-yl)methanone] | 3
10 | C[C@@H]1CN(C(=O)c2cc3c(cn2)nc(N)c2cnn(C)c23)[C@H]2c3ccc(Br)cc3C[C@H]2O1 [Example Ca-50, (4-amino-1-methyl-1H-pyrazolo[4,3-c][1,7]naphthyridin-8-yl)((2R,4aS,9aR)-7-bromo-2-methyl-2,3,9,9a-tetrahydroindeno[2,1-b][1,4]oxazin-4(4aH)-yl)methanone] | 20
11 | CN(C(=O)c1cc2c(cn1)nc(N)c1cnn(C)c12)[C@H]1c2ccc(C(F)(F)F)cc2[C@@H]2C[C@@H]21 (single isomer, unassigned) [Example Ca-25] | 43
12 | [2H]C1([2H])CC[C@@H]2Oc3cc(C(F)(F)F)cc(F)c3[C@@H]2N1C(=O)c1cc2c3c(c(N)nc2cn1)COC3 [Example Ca-58, (4-amino-1,3-dihydrofuro[3,4-c][1,7]naphthyridin-8-yl)((4aS,9bS)-9-fluoro-7-(trifluoromethyl)-3,4,4a,9b-tetrahydrobenzofuro[3,2-b]pyridin-1(2H)-yl-2,2-d2)methanone] | 9
13 | Cn1ncc2c3cc(C(=O)N4CC[C@H]5C[C@@H]4c4ccc(C(F)(F)F)cc4O5)ncc3nc(N)c21 [Example Ca-44, (4-amino-3-methyl-3H-pyrazolo[3,4-c][1,7]naphthyridin-8-yl)((2S,6R)-9-(trifluoromethyl)-3,4-dihydro-2H-2,6-methanobenzo[b][1,5]oxazocin-5(6H)-yl)methanone] | 139
14 | Nc1nc2cnc(C(=O)N3C[C@@H](F)C[C@@H]4Oc5cc(C(F)(F)F)cc(F)c5[C@@H]43)cc2c2c1COC2 [Example Ca-57, (4-amino-1,3-dihydrofuro[3,4-c][1,7]naphthyridin-8-yl)((3S,4aS,9bS)-3,9-difluoro-7-(trifluoromethyl)-3,4,4a,9b-tetrahydrobenzofuro[3,2-b]pyridin-1(2H)-yl)methanone] | 20
15 | Cn1ncc2c(N)nc3cnc(C(=O)N4CCO[C@@H]5Cc6cc(C7CC7)ccc6[C@@H]54)cc3c21 [Example Ca-34, (4-amino-1-methyl-1H-pyrazolo[4,3-c][1,7]naphthyridin-8-yl)((4aS,9aR)-7-cyclopropyl-2,3,9,9a-tetrahydroindeno[2,1-b][1,4]oxazin-4(4aH)-yl)methanone] | 62
16 | Nc1nc2cnc(C(=O)N3CCC[C@@H]4Cc5cc(C(F)(F)F)ccc5[C@@H]43)cc2c2c1COC2 (racemic) [Example Ca-23, (Rac)-(4-amino-1,3-dihydrofuro[3,4-c][1,7]naphthyridin-8-yl)((4aR,9bR)-7-(trifluoromethyl)-2,3,4,4a,5,9b-hexahydro-1H-indeno[1,2-b]pyridin-1-yl)methanone] | 134
17 | Cn1ncc2c(N)nc3cnc(C(=O)N4CCO[C@@H]5Cc6cc(OC(F)(F)F)ccc6[C@@H]54)cc3c21 [Example Ca-53, (4-amino-1-methyl-1H-pyrazolo[4,3-c][1,7]naphthyridin-8-yl)((4aS,9aR)-7-(trifluoromethoxy)-2,3,9,9a-tetrahydroindeno[2,1-b][1,4]oxazin-4(4aH)-yl)methanone] | 33
18 | C[C@@H]1CC[C@@H]2Oc3cc(OC(F)(F)F)ccc3[C@@H]2N1C(=O)c1cc2c(cn1)nc(N)c1cnn(C)c12 (racemic) [Example Ca-41, (Rac)-(4-amino-1-methyl-1H-pyrazolo[4,3-c][1,7]naphthyridin-8-yl)((2R,4aS,9bS)-2-methyl-7-(trifluoromethoxy)-3,4,4a,9b-tetrahydrobenzofuro[3,2-b]pyridin-1(2H)-yl)methanone] | 30
19 | Cn1ncc2c(N)nc3ccc(C(=O)N4CCO[C@@H]5Cc6cc(Br)ccc6[C@@H]54)cc3c21 (racemic) [Example Ca-12, (Rac)-(4-amino-1-methyl-1H-pyrazolo[4,3-c]quinolin-8-yl)(7-bromo-2,3,9,9a-tetrahydroindeno[2,1-b][1,4]oxazin-4(4aH)-yl)methanone] | 53
20 | C[C@@H]1CN(C(=O)c2cc3c(cn2)nc(N)c2cnn(C)c23)[C@H]2c3ccc(C(F)(F)F)cc3C[C@H]2O1 [Example Ca-49, (4-amino-1-methyl-1H-pyrazolo[4,3-c][1,7]naphthyridin-8-yl)((2R,4aS,9aR)-2-methyl-7-(trifluoromethyl)-2,3,9,9a-tetrahydroindeno[2,1-b][1,4]oxazin-4(4aH)-yl)methanone] | 26
21 | Cn1ncc2c(N)nc3cnc(C(=O)N4CCC5CC4c4ccc(C(F)(F)F)cc45)cc3c21 (racemic) [Example Ca-14, (Rac)-(4-amino-1-methyl-1H-pyrazolo[4,3-c][1,7]naphthyridin-8-yl)((1R,5S)-7-(trifluoromethyl)-1,3,4,5-tetrahydro-2H-1,5-methanobenzo[c]azepin-2-yl)methanone] | 16
22 | Cn1ncc2c(N)nc3cnc(C(=O)N4CC[C@H]5C[C@@H]4c4ccc(C(F)(F)F)nc4O5)cc3c21 [Example Ca-2, (4-amino-1-methyl-1H-pyrazolo[4,3-c][1,7]naphthyridin-8-yl)((2S,6R)-9-(trifluoromethyl)-3,4-dihydro-2H-2,6-methanopyrido[2,3-b][1,5]oxazocin-5(6H)-yl)methanone] | 8
23 | C[C@@H]1C[C@@H]2CCc3cc(C(F)(F)F)ccc3[C@@H]2N(C(=O)c2cc3c4c(c(N)nc3cn2)COC4)C1 (racemic) [Example Ca-40, (Rac)-(4-amino-1,3-dihydrofuro[3,4-c][1,7]naphthyridin-8-yl)((3R,4aS,10bR)-3-methyl-8-(trifluoromethyl)-3,4,4a,5,6,10b-hexahydrobenzo[h]quinolin-1(2H)-yl)methanone] | 179
24 | Cc1ccc2c(c1)C[C@H]1OCCN(C(=O)c3cc4c(cn3)nc(N)c3cnn(C)c34)[C@@H]21 [Example Ca-36, (4-amino-1-methyl-1H-pyrazolo[4,3-c][1,7]naphthyridin-8-yl)((4aS,9aR)-7-methyl-2,3,9,9a-tetrahydroindeno[2,1-b][1,4]oxazin-4(4aH)-yl)methanone] | 95
